Laboratory results reported in ChEMBL document CHEMBL1151886, “Synthesis and SAR of hydroxyethylamine based phenylcarboxyamides as inhibitors of BACE” (Bioorg Med Chem Lett, 2009).
pIC50: −log10 of the molar value.

How the values were obtained:
Beta-secretase 1 [1] = target: T1, Beta-secretase 1 (Homo sapiens, UniProt P56817); experiment: Binding affinity to BACE assessed as displacement of [3H]BMS-599240; details: for pIC50: read-out: IC50
Beta-secretase 1 [2] = target: T1, Beta-secretase 1; experiment: Inhibition of BACE1 in human HEK293 cells overexpressing APP with Swedish mutation assessed as inhibition of amyloid beta 40 production; type: cell-based; details: for pIC50: read-out: IC50; for IC50: hek293

T1 sequence (P56817 whole entry): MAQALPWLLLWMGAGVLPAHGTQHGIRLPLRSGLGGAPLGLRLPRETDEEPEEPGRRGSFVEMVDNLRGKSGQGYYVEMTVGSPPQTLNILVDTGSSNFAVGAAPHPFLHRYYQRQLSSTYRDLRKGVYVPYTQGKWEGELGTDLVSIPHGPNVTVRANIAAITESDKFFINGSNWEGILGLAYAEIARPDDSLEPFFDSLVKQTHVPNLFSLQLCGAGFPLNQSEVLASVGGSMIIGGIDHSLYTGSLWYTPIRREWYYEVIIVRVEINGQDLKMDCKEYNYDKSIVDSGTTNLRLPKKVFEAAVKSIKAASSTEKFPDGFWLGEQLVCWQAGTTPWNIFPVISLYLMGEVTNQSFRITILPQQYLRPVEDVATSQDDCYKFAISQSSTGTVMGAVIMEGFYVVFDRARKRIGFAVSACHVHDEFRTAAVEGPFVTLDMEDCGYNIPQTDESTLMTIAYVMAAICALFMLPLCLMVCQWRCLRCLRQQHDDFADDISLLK

CCCN(CCC)C(=O)c1cc(C(C)=O)cc(C(=O)N[C@@H](Cc2cc(F)cc(F)c2)[C@H](O)CNCc2cccc(OC)c2)c1
pIC50 (Beta-secretase 1 [1]): 8.40
pIC50 (Beta-secretase 1 [2]): 7.72

COc1cccc(CNC[C@@H](O)[C@H](Cc2cc(F)cc(F)c2)NC(=O)c2cc(C(C)=O)cc(C(=O)N[C@H](C)c3ccccc3)c2)c1
pIC50 (Beta-secretase 1 [1]): 7.70
pIC50 (Beta-secretase 1 [2]): 7.14

CCCN(CCC)C(=O)c1cc(CCO)cc(C(=O)N[C@@H](Cc2cc(F)cc(F)c2)[C@H](O)CNCc2cccc(OC)c2)c1
pIC50 (Beta-secretase 1 [1]): 8.00
pIC50 (Beta-secretase 1 [2]): 7.28

CCCN(CCC)C(=O)c1cc(C(=O)N[C@@H](Cc2cc(F)cc(F)c2)[C@H](O)CNCc2cccc(OC)c2)cc(C(C)NC(C)=O)c1 (stereo not given in full)
pIC50 (Beta-secretase 1 [1]): 7.70
pIC50 (Beta-secretase 1 [2]): 7.35

CO/N=C(/C)c1cc(C(=O)NC(C)c2ccc(F)cc2)cc(C(=O)N[C@@H](Cc2cc(F)cc(F)c2)[C@H](O)CNCc2cccc(OC)c2)c1 (stereo not given in full)
pIC50 (Beta-secretase 1 [1]): 7.62
pIC50 (Beta-secretase 1 [2]): 6.56

COc1cccc(CNC[C@@H](O)[C@H](Cc2cc(F)cc(F)c2)NC(=O)c2cc(/C(C)=N/OCC(C)C)cc(N(c3ccccc3)S(C)(=O)=O)c2)c1
pIC50 (Beta-secretase 1 [1]): 6.62
IC50 (Beta-secretase 1 [2]): Not Active

CCCN(CCC)C(=O)c1cc(C(=O)N[C@@H](Cc2cc(F)cc(F)c2)[C@H](O)CNCc2cccc(OC)c2)cc(/C(C)=N\OCc2ccccc2)c1
pIC50 (Beta-secretase 1 [1]): 7.17
pIC50 (Beta-secretase 1 [2]): 6.27

CCCN(CCC)C(=O)c1cc(C(=O)N[C@@H](Cc2cc(F)cc(F)c2)[C@H](O)CNCc2cccc(OC)c2)cc(C(C)O)c1 (stereo not given in full)
pIC50 (Beta-secretase 1 [1]): 8.70
pIC50 (Beta-secretase 1 [2]): 7.92

CCCN(CCC)C(=O)c1cc(CC(COC)OC)cc(C(=O)N[C@@H](Cc2cc(F)cc(F)c2)[C@H](O)CNCc2cccc(OC)c2)c1 (stereo not given in full)
pIC50 (Beta-secretase 1 [1]): < 5.70
IC50 (Beta-secretase 1 [2]): Not Active

CCCN(CCC)C(=O)c1cc(C(=O)N[C@@H](Cc2cc(F)cc(F)c2)[C@H](O)CNCc2cccc(OC)c2)cc(/C(C)=N\O)c1
pIC50 (Beta-secretase 1 [1]): 8.52
pIC50 (Beta-secretase 1 [2]): 7.57

CCCN(CCC)C(=O)c1cc(C(=O)N[C@@H](Cc2cc(F)cc(F)c2)[C@H](O)CNCc2cccc(OC)c2)cc(/C(C)=N\OCC(C)C)c1
pIC50 (Beta-secretase 1 [1]): 7.26
pIC50 (Beta-secretase 1 [2]): 6.44

COc1cccc(CNC[C@@H](O)[C@H](Cc2cc(F)cc(F)c2)NC(=O)c2cc(/C(C)=N\O)cc(N(C)S(C)(=O)=O)c2)c1
pIC50 (Beta-secretase 1 [1]): 7.12
pIC50 (Beta-secretase 1 [2]): 6.37

CO/N=C(/C)c1cc(C(=O)N[C@@H](Cc2cc(F)cc(F)c2)[C@H](O)CNCc2cccc(OC)c2)cc(N2CCCCS2(=O)=O)c1
pIC50 (Beta-secretase 1 [1]): 7.28
pIC50 (Beta-secretase 1 [2]): 6.46

COc1cccc(CNC[C@@H](O)[C@H](Cc2cc(F)cc(F)c2)NC(=O)c2cccc(C(=O)N[C@H](C)c3ccccc3)c2)c1
pIC50 (Beta-secretase 1 [1]): 7.05
pIC50 (Beta-secretase 1 [2]): 6.70

C=CCO/N=C(/C)c1cc(C(=O)N[C@@H](Cc2cc(F)cc(F)c2)[C@H](O)CNCc2cccc(OC)c2)cc(C(=O)N(CCC)CCC)c1
pIC50 (Beta-secretase 1 [1]): 8.00
pIC50 (Beta-secretase 1 [2]): 6.92

COc1cccc(CNC[C@@H](O)[C@H](Cc2cc(F)cc(F)c2)NC(=O)c2cc(/C(C)=N\OCc3ccccc3)cc(N3CCCCS3(=O)=O)c2)c1
pIC50 (Beta-secretase 1 [1]): 7.51
pIC50 (Beta-secretase 1 [2]): 6.09

COc1cccc(CNC[C@@H](O)[C@H](Cc2cc(F)cc(F)c2)NC(=O)c2cc(C(C)=O)cc(C(=O)NC(C)c3ccc(F)cc3)c2)c1 (stereo not given in full)
pIC50 (Beta-secretase 1 [1]): 7.29
pIC50 (Beta-secretase 1 [2]): 7.04

COc1cccc(CNC[C@@H](O)[C@H](Cc2cc(F)cc(F)c2)NC(=O)c2cc(C(C)O)cc(N3CCCCS3(=O)=O)c2)c1 (stereo not given in full)
pIC50 (Beta-secretase 1 [1]): 7.37
pIC50 (Beta-secretase 1 [2]): 6.52

COc1cccc(CNC[C@@H](O)[C@H](Cc2cc(F)cc(F)c2)NC(=O)c2cc(C(C)O)cc(N(c3ccccc3)S(C)(=O)=O)c2)c1 (stereo not given in full)
IC50 (Beta-secretase 1 [1]): Not Active
IC50 (Beta-secretase 1 [2]): Not Active

COc1cccc(CNC[C@@H](O)[C@H](Cc2cc(F)cc(F)c2)NC(=O)c2cccc(N3CCCCS3(=O)=O)c2)c1
pIC50 (Beta-secretase 1 [1]): 7.13
pIC50 (Beta-secretase 1 [2]): 6.74

COc1cccc(CNC[C@@H](O)[C@H](Cc2cc(F)cc(F)c2)NC(=O)c2cc(C(C)=O)cc(N(C)S(C)(=O)=O)c2)c1
pIC50 (Beta-secretase 1 [1]): 6.91
pIC50 (Beta-secretase 1 [2]): 6.25

CCCN(CCC)C(=O)c1cccc(C(=O)N[C@@H](Cc2cc(F)cc(F)c2)[C@H](O)CNCc2cccc(OC)c2)c1
pIC50 (Beta-secretase 1 [1]): 7.51
pIC50 (Beta-secretase 1 [2]): 7.10

CCCN(CCC)C(=O)c1cc(CC(C)O)cc(C(=O)N[C@@H](Cc2cc(F)cc(F)c2)[C@H](O)CNCc2cccc(OC)c2)c1 (stereo not given in full)
pIC50 (Beta-secretase 1 [1]): 7.80
pIC50 (Beta-secretase 1 [2]): 7.47

C=CCO/N=C(/C)c1cc(C(=O)N[C@@H](Cc2cc(F)cc(F)c2)[C@H](O)CNCc2cccc(OC)c2)cc(N2CCCCS2(=O)=O)c1
pIC50 (Beta-secretase 1 [1]): 6.95
pIC50 (Beta-secretase 1 [2]): 5.91

C=CCO/N=C(/C)c1cc(C(=O)N[C@@H](Cc2cc(F)cc(F)c2)[C@H](O)CNCc2cccc(OC)c2)cc(C(=O)N[C@H](C)c2ccccc2)c1
pIC50 (Beta-secretase 1 [1]): 7.07
pIC50 (Beta-secretase 1 [2]): 6.30

CCCN(CCC)C(=O)c1cc(C(=O)N[C@@H](Cc2cc(F)cc(F)c2)[C@H](O)CNCc2cccc(OC)c2)cc(C(C)N)c1 (stereo not given in full)
pIC50 (Beta-secretase 1 [1]): 6.91
pIC50 (Beta-secretase 1 [2]): 6.19

COc1cccc(CNC[C@@H](O)[C@H](Cc2cc(F)cc(F)c2)NC(=O)c2cc(C(=O)N[C@H](C)c3ccccc3)cc(C(C)O)c2)c1 (stereo not given in full)
pIC50 (Beta-secretase 1 [1]): 7.54
pIC50 (Beta-secretase 1 [2]): 7.04

CO/N=C(\C)c1cc(C(=O)N[C@@H](Cc2cc(F)cc(F)c2)[C@H](O)CNCc2cccc(OC)c2)cc(N(C)S(C)(=O)=O)c1
pIC50 (Beta-secretase 1 [1]): 7.22
pIC50 (Beta-secretase 1 [2]): 7.28

COc1cccc(CNC[C@@H](O)[C@H](Cc2cc(F)cc(F)c2)NC(=O)c2cccc(C(=O)NC(C)c3ccc(F)cc3)c2)c1 (stereo not given in full)
pIC50 (Beta-secretase 1 [1]): 6.78
pIC50 (Beta-secretase 1 [2]): 6.58

CCCN(CCC)C(=O)c1cc(C(=O)N[C@@H](Cc2cc(F)cc(F)c2)[C@H](O)CNCc2cccc(OC)c2)cc(/C(C)=N\OC)c1
pIC50 (Beta-secretase 1 [1]): 9.00
pIC50 (Beta-secretase 1 [2]): 7.38

C=CCO/N=C(/C)c1cc(C(=O)NC(C)c2ccc(F)cc2)cc(C(=O)N[C@@H](Cc2cc(F)cc(F)c2)[C@H](O)CNCc2cccc(OC)c2)c1 (stereo not given in full)
pIC50 (Beta-secretase 1 [1]): 6.77
pIC50 (Beta-secretase 1 [2]): 6.28

COc1cccc(CNC[C@@H](O)[C@H](Cc2cc(F)cc(F)c2)NC(=O)c2cc(C(C)=O)cc(N3CCCCS3(=O)=O)c2)c1
pIC50 (Beta-secretase 1 [1]): 7.05
pIC50 (Beta-secretase 1 [2]): 6.61

COc1cccc(CNC[C@@H](O)[C@H](Cc2cc(F)cc(F)c2)NC(=O)c2cc(/C(C)=N\OCC(C)C)cc(N3CCCCS3(=O)=O)c2)c1
pIC50 (Beta-secretase 1 [1]): 6.37
pIC50 (Beta-secretase 1 [2]): 5.68

COc1cccc(CNC[C@@H](O)[C@H](Cc2cc(F)cc(F)c2)NC(=O)c2cc(C(=O)NC(C)c3ccc(F)cc3)cc(C(C)O)c2)c1 (stereo not given in full)
pIC50 (Beta-secretase 1 [1]): 7.43
pIC50 (Beta-secretase 1 [2]): 6.79

COc1cccc(CNC[C@@H](O)[C@H](Cc2cc(F)cc(F)c2)NC(=O)c2cc(/C(C)=N\O)cc(N3CCCCS3(=O)=O)c2)c1
pIC50 (Beta-secretase 1 [1]): 7.42
pIC50 (Beta-secretase 1 [2]): 6.93

CCCO/N=C(/C)c1cc(C(=O)N[C@@H](Cc2cc(F)cc(F)c2)[C@H](O)CNCc2cccc(OC)c2)cc(N(C)S(C)(=O)=O)c1
pIC50 (Beta-secretase 1 [1]): 7.23
pIC50 (Beta-secretase 1 [2]): 6.66

CO/N=C(/C)c1cc(C(=O)N[C@@H](Cc2cc(F)cc(F)c2)[C@H](O)CNCc2cccc(OC)c2)cc(C(=O)N[C@H](C)c2ccccc2)c1
pIC50 (Beta-secretase 1 [1]): 7.49
pIC50 (Beta-secretase 1 [2]): 7.09

CCCO/N=C(/C)c1cc(C(=O)N[C@@H](Cc2cc(F)cc(F)c2)[C@H](O)CNCc2cccc(OC)c2)cc(N2CCCCS2(=O)=O)c1
pIC50 (Beta-secretase 1 [1]): 7.60
pIC50 (Beta-secretase 1 [2]): 6.69

COc1cccc(CNC[C@@H](O)[C@H](Cc2cc(F)cc(F)c2)NC(=O)c2cc(C(C)O)cc(N(C)S(C)(=O)=O)c2)c1 (stereo not given in full)
pIC50 (Beta-secretase 1 [1]): 7.37
pIC50 (Beta-secretase 1 [2]): 6.91

COc1cccc(CNC[C@@H](O)[C@H](Cc2cc(F)cc(F)c2)NC(=O)c2cccc(N(C)S(C)(=O)=O)c2)c1
pIC50 (Beta-secretase 1 [1]): 7.12
pIC50 (Beta-secretase 1 [2]): 7.10
